This is an account of results in patent EP4140481A1, “PROTEIN-OLIGOMER BINDING AGENTS AND THERAPEUTIC USES THEREOF” (Galyan Bio, Inc., priority 2021, dated 2023).

Data set [1] deals with T1, Amyloid-β 1-40 (Ab40) (Homo sapiens, UniProt P05067).
T1 construct: purchased rPeptide, Watkinsville, Georgia A-1153-2
Description: Dynamic Light Scattering (DLS), induced aggregation. It counts as biochemical. As to conditions: equimolar Compound 4. On the procedure:
Proteins were ultracentrifuged with 50,000 rpm (rounds per minute) for one hour at 2 °C. The supernatant was used for DLS measurements. DLS measurements were conducted with Malvern Zetasizer Nano (Malvern Panalytical Ltd, United Kingdom).
Amyloid-β 1-40 (Ab40) (catalog A-1153-2, rPeptide, Watkinsville, Georgia) Sequence
The aliquots of lyophilized Amyloid-β 1-40 (Ab40) peptide were hydrated at room temperature in 50 mM phosphate buffer pH 7.4 and 100 mM NaCl (Buffer 1)
The aliquots of lyophilized Ab peptide were hydrated at room temperature in 75 mM MOPS pH 7.4 and 2 mM CaCl2 (Buffer 2)

Data set [2] concerns the target T2, mHTT (Homo sapiens, UniProt P42858).
T2 construct: host or cells: ST HDH Q111/111 mouse striatal cell line (knock-in locus)
As to conditions: reported effects in cultured cells, quoted for C. elegans dose selection; cited from earlier work.

The nature of data set [3]: Pharmacokinetics of Compound 22 in plasma and brain (UHPLC-TOF). The class given is in vivo, male CD1 mice. On the procedure: Compound 22 pharmacokinetic properties was measured in three male CD1 mice at several timepoints. Compound 22 was dissolved in 10% DMSO, 10%, cremaphor, and 80% saline. The tested dose was 33.3 mg/kg body weight. Brain tissue was homogenized and protein precipitated with acetonitrile. […] As such, Compound 22 was selected for testing in an animal model of HD the R6/2 model. As described below, Compound 22 and its analogs were further tested for their effects on striatal cell viability and effects of mHTT levels.

The nature of data set [4]: Oral bioavailability. As to conditions: mouse, in vivo, mice.
Data set [5] in a line: Body weight in R6/2 mice of Huntington's disease. The class given is in vivo. On the procedure: Methods ― Total of 20 female and male R6/2 mice and 10 female and male wild-type littermate control mice (WT) were used in the study. The mice were genotyped and the R6/2 mice were divided into different treatment groups based on their litter and baseline body weight. The treatment with Vehicle or Compound 22 (33 mg/kg; 5 ml/kg, i.p. QD) was started at 4 weeks of age after the baseline behavioral tests (Figure 6). Body weights were measured at 3 weeks of age and twice a week until the end of the study.
The experimental groups were: • Group 1) 10 wild-type mice (mixed gender) treated with Vehicle (5 ml/kg, i.p., QD) starting at 4 weeks of age • Group 2) 10 R6/2 mice (mixed gender) treated with Vehicle (5 ml/kg, i.p., QD) starting at 4 weeks of age • Group 3) 10 R6/2 mice (mixed gender) treated with Compound 22 (33 mg/kg; 5 ml/kg, i.p. QD) starting at 4 weeks of age
Compound Delivery and Dosing - Treatment with Compound 22 (33 mg/kg; 5 ml/kg, i.p. QD) or Vehicle was started at age week 4 and continued until the 12 weeks of age. The test articles were handled and stored and the dose formulations were prepared according to detailed instructions provided by the Sponsor.
Body Weight - Body weight was measured starting at 3 weeks of age before treatment onset and two times per week on the same day (on Monday and Friday) until the end of the study.

Data set [6] has as its system mHTT. Description: Immunohistochemistry of nuclear diffuse mHTT in brain tissue from the R6/2 study. The class given is in vivo, R6/2 mice. As to conditions: 33 mg/kg i.p. QD; treated animals n= 9 versus vehicle treated TG mice; p = 0.01. On the procedure:
Preparation of Immunohistology slides - Brain tissue collected within the animal study was prepared for IHC studies by Charles River staff. The brains were fixed by immersion in 4% paraformaldehyde for at least 24 h after which brain samples were cryoprotected by 30% sucrose solution for 72 h. Finally, the brain samples were flash-frozen in liquid nitrogen and stored at -80 °C. The brain samples were cut using a microtome cryostat system, producing coronal brain tissue sections of 40 µm thickness. Those were mounted on individual adhesive-coated microscope glass slides with frosted ends.
Staining - Goat anti-Rabbit IgG (H+L) Alexa Fluor 647 (1:500, ThermoFisher Invitrogen) was used as a secondary antibody for binding to CBP antibody. […]
The blocking buffer was freshly prepared and consisted of PBS (Sigma-Aldrich) with 5% normal goat serum (NGS), 0.2% BSA, 0.2% lysine and 0.2% glycine. […] On day six, samples were washed and then incubated with DAPI containing mounting medium Fluoroshield (Sigma-Aldrich), in order to counterstain the nuclei and preserve the fluorescence. […]
Results - Figures 23A-23F show the distinction of inclusion bodies (IB) and diffuse species of mHTT by confocal fluorescence imaging. […] Consequently, this distinction of diffuse mHTT and IBs was implemented in the analysis macro to quantify the different species of mHTT within striatum and cortex of R6/2 mice. […]

Where [7] appears, read: Buffer 1, Ab40 154 µM, 100% of Ab40.
Where [8] appears, read: by intensity, Buffer2, Ab40 155 µM.

The structures appear in SMILES notation. “Also recorded” adds a separate entry of the source.

T1 sequence (P05067 672-711): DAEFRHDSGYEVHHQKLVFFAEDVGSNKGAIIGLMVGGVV
T2 sequence (P42858 with tags, fused parts or gaps with the stated changes): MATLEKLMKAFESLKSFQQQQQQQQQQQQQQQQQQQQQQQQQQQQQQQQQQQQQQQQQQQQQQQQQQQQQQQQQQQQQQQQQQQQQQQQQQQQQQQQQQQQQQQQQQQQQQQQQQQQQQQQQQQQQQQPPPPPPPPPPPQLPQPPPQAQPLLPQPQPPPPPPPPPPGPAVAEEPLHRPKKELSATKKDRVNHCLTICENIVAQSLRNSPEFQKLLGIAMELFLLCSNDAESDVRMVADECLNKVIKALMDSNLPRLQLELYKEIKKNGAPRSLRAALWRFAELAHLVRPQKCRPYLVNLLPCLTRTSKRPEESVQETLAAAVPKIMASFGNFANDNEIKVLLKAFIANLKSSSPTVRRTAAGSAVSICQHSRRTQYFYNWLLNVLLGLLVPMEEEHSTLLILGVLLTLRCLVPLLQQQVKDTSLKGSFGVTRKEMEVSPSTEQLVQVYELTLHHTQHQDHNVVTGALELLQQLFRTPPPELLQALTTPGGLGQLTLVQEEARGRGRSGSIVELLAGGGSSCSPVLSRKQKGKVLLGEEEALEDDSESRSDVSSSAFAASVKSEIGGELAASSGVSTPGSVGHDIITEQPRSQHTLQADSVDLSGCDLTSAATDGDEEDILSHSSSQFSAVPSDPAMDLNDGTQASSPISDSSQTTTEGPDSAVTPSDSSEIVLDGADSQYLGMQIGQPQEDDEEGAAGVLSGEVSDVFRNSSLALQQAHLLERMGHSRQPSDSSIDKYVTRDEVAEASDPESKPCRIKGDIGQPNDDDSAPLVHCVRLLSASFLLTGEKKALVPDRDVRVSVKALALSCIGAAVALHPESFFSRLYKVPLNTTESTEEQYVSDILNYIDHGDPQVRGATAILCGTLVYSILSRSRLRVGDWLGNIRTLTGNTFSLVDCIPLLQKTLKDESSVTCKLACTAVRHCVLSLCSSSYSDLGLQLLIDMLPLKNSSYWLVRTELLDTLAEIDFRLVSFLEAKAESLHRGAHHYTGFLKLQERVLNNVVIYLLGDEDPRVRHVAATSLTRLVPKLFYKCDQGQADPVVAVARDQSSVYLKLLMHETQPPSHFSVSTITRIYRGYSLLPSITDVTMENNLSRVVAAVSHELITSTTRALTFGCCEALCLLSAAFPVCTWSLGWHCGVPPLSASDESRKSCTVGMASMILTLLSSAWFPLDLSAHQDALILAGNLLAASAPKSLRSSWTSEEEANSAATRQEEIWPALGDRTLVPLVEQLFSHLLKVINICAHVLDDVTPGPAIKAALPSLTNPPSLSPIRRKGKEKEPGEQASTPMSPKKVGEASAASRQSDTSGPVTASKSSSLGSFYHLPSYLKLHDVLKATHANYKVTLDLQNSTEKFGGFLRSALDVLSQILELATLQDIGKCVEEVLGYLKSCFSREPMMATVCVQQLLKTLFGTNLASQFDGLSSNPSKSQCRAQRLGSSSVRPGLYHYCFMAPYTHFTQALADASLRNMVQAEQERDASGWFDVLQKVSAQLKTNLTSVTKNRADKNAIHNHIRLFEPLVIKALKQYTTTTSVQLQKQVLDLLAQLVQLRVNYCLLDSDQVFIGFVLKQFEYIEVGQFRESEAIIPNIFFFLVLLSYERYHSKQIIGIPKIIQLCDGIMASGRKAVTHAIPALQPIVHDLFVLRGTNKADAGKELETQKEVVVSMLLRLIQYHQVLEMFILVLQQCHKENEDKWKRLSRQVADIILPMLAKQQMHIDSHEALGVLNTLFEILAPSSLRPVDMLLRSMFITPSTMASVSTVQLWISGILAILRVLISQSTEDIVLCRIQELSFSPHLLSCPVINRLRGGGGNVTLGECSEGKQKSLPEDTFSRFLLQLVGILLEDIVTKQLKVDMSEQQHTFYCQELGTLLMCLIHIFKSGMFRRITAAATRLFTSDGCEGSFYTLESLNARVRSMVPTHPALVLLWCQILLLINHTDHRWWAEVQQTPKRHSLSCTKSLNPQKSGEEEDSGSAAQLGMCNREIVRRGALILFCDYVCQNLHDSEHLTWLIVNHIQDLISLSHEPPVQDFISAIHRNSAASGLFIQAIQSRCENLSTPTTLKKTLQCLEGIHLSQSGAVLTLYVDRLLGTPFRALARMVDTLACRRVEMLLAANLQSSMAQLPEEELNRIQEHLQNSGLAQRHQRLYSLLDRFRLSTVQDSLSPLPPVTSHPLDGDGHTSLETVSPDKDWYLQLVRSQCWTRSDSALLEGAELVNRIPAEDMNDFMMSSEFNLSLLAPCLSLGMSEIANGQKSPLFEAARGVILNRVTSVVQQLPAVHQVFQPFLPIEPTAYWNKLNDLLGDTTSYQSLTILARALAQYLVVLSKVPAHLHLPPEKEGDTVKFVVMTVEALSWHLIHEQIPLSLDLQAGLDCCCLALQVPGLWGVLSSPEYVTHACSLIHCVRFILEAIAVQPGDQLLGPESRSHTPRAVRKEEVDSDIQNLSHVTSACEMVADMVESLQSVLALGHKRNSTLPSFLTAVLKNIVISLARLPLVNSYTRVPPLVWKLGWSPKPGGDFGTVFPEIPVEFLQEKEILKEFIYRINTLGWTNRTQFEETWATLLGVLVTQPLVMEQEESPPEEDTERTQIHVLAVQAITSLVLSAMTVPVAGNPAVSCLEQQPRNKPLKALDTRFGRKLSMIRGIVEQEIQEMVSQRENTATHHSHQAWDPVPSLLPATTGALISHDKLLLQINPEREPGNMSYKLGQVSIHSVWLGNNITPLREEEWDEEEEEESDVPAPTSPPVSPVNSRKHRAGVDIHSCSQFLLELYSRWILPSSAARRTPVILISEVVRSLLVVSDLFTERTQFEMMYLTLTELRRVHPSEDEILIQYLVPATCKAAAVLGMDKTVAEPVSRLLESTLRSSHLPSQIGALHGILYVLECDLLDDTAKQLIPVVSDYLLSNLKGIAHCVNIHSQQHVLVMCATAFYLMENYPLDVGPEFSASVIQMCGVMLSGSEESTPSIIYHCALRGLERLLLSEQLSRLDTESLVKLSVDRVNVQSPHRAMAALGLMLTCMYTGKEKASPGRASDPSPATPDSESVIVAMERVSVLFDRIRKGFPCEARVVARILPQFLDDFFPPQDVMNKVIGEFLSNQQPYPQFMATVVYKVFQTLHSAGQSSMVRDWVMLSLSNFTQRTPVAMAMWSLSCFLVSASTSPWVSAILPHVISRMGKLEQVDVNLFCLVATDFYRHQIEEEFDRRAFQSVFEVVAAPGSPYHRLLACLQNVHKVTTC

For the compound `CCc1c(C)[nH]c2ccc(C(=O)NCCN(CC)CC)cc12` [Compound 4, N-(2-(diethylamino)ethyl)-3-ethyl-2-methyl-1H-indole-5-carboxamide], in data set [1] (setting [7]), the “mean size, distribution by number” value worked out at 141.5 nm and the “mean size, distribution by volume” value is recorded as 208.5 nm. Also, the “Size, Peak 1” value in data set [1] (by intensity, Buffer2 (MOPS, CaCl2), Ab40 155 µM) was found to be 304.8 nm. Further, in data set [1] (setting [8]), the “% Intensity, Peak 1” value is 55.5%; the “% Intensity, Peak 2” value came out at 33.5%; the “% Intensity, Peak 3” value amounted to 6.1%; the “Size, Peak 2” value worked out at 77.06 nm. For the same compound, the “Size, Peak 3” value in data set [1] (setting [8]) is 0.7710 nm. Besides, the EC50 in data set [2] was 160 nM.

As for `Cc1[nH]c2ccc(C(=O)NCCN(C(C)C)C(C)C)cc2c1C` [Compound 22], in data set [3] (33.3 mg/kg body weight, plasma and brain), the “penetration of the blood brain area in vivo” value is “penetrates the blood brain area; also recorded: can penetrate the blood brain area in vivo”. Besides, the “Blood Brain Barrier Penetrability AUCbrain/AUCplasma” value in data set [3] (Compound 22 in mice) was “AUCbrain/AUCplasma = 2.24”. Moreover, the Cmax in data set [3] (male, CD1, mouse, brain, ip, 33.3 mg/kg body weight, i.p. administration and formulation, read-out: Brain exposure Cmax) was 5.56 µM. Further, the bioavailability in data set [4] is 10%. Further, the body weight result in data set [5] (33 mg/kg i.p. QD, R6/2 mice 3 to 12 weeks, versus vehicle treated R6/2 mice) was “no significant differences”. Besides, in data set [5] (female R6/2 mice at week 12, in comparison to untreated female R6/2 mice), the Body weight loss result is listed as “significantly improved”. Moreover, the “Body weight loss improvement” value in data set [5] (male R6/2 mice at week 12, in comparison to untreated male R6/2 mice) was “not observed”. In addition, in data set [6], the “Nuclear diffuse mHTT reduction in the cortex” value is reported as 40%.
